In patent US12539292B2, “BRM targeting compounds and associated methods of use” (Arvinas Operations, Inc., priority 2018, dated 2026):
Like-named read-outs stand apart in the source and are kept apart here.

Target: T1, BRM (Homo sapiens, UniProt P51531)
T1 construct: In-Cell Western Screen of BRM Degradation in SW1573 Cells; endogenous in cells; host or cells: SW1573
Assay: In-cell Western screen of BRM degradation in SW1573 cells (Dmax and DC50)
Type: cell-based
Summary of the method: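 SW1573 cells were treated with compound overnight (18-20 h; final DMSO 0.1%), then fixed in 4% PFA, permeabilized with Triton X-100 and blocked. BRM was detected by in-cell Western using 800 nm anti-rabbit and 680 nm anti-mouse secondaries, and Dmax and DC50 were derived from the LI-COR Odyssey signal.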

[1] = BRM degradation, SW1573 cells, read-out: DC50
[2] = BRM degradation, SW1573 cells, read-out: Dmax (% degraded)
[3] = SW1573, % degraded, when tested at the top concentration of between 0.3 and 10 μM, read-out: BRM Dmax (%)
[4] = BRM degradation, SW1573 cells, when tested at the top concentration of between 0.3 and 10 μM, read-out: Dmax (%) (% degraded)
[5] = BRM degradation, read-out: BRM DC50

T1 sequence (P51531 whole entry): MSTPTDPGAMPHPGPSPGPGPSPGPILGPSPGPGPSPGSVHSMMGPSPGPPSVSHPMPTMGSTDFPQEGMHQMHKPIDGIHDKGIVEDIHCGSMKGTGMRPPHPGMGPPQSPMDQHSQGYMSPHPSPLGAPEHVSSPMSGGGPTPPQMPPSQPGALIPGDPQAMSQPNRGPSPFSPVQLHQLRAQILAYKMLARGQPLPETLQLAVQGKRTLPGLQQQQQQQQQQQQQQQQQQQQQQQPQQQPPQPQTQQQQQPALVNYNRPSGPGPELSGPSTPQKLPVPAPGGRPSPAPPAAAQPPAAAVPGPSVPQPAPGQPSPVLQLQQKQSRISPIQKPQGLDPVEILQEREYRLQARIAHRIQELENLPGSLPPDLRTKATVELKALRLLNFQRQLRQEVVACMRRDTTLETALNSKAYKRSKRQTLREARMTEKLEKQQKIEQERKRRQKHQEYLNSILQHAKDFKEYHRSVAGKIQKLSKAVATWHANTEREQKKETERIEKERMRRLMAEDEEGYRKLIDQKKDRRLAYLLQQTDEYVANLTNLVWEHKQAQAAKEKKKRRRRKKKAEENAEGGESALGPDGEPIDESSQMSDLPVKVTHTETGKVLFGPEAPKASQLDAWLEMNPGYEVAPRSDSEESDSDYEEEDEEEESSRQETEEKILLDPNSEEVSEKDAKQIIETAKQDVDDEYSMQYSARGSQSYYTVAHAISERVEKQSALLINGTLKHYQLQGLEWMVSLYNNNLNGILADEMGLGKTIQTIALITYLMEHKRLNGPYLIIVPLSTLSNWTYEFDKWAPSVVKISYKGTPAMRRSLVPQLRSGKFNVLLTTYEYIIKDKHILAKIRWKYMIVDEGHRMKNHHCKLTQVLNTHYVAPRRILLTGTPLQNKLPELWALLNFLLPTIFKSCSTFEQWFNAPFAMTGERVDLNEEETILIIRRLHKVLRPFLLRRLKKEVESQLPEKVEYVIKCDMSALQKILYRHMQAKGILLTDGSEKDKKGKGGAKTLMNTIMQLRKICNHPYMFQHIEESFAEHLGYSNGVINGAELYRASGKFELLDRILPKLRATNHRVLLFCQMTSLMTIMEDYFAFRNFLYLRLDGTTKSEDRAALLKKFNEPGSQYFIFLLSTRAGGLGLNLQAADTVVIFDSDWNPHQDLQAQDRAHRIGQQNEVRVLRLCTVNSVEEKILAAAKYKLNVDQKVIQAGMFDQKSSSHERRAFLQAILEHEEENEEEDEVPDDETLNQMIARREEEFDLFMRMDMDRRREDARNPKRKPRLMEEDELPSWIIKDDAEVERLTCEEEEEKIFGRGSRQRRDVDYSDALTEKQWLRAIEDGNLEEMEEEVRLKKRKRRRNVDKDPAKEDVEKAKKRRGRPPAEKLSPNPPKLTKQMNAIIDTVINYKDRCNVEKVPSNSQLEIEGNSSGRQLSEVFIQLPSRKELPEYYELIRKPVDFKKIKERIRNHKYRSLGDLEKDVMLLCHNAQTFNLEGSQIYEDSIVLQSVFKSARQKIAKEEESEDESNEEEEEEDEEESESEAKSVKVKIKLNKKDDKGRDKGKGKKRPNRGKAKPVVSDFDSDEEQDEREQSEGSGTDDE

Structure (SMILES)	DC50 [1]	Dmax [3]	other results
COCC[C@H](NC(=O)[C@@H]1C[C@@H](O)CN1C(=O)[C@@H](c1cc(N2CCC(CN3CCC(O[C@H]4C[C@H](Oc5cc(N6C7CCC6CN(c6cc(-c8ccccc8O)nnc6N)C7)ccn5)C4)CC3)CC2)no1)C(C)C)c1ccc(-c2scnc2C)cc1 [compound 670, (2S,4R)-1-((2R)-2-(3-(4-((4-((1r,3r)-3-((4-(3-(3-amino-6-(2-hydroxyphenyl)pyridazin-4-yl)-3,8-diazabicyclo[3.2.1]octan-8-yl)pyridin-2-yl)oxy)cyclobutoxy)piperidin-1-yl)methyl)piperidin-1-yl)isoxazol-5-yl)-3-methylbutanoyl)-4-hydroxy-N-((S)-3-methoxy-1-(4-(4-methylthiazol-5-yl)phenyl)propyl)pyrrolidine-2-carboxamide]	< 2.5 nM		Dmax [2]: > 75%
Cc1ncsc1-c1ccc([C@H](C)NC(=O)[C@@H]2C[C@@H](O)CN2C(=O)[C@H](c2cc(OCCN3CCN(CC#CCN4CCOC5(CCN(c6cc(-c7ccccc7O)nnc6N)CC5)C4)CC3)no2)C(C)C)cc1 [compound 187, (2S,4R)-1-((S)-2-(3-(2-(4-(4-(9-(3-amino-6-(2-hydroxyphenyl)pyridazin-4-yl)-1-oxa-4,9-diazaspiro[5.5]undecan-4-yl)but-2-yn-1-yl)piperazin-1-yl)ethoxy)isoxazol-5-yl)-3-methylbutanoyl)-4-hydroxy-N-((S)-1-(4-(4-methylthiazol-5-yl)phenyl)ethyl)pyrrolidine-2-carboxamide]	> 30 nM		
Cc1ncsc1-c1ccc([C@H](C)NC(=O)[C@@H]2C[C@@H](O)CN2C(=O)[C@@H](c2cc(C#CCN3CCC(O[C@H]4C[C@H](Oc5cc(N6C7CCC6CN(c6cc(-c8ccccc8O)nnc6N)C7)ccn5)C4)CC3)no2)C(C)C)cc1 [compound 380, (2S,4R)-1-((2R)-2-(3-(3-(4-((1r,3R)-3-((4-(3-(3-amino-6-(2-hydroxyphenyl)pyridazin-4-yl)-3,8-diazabicyclo[3.2.1]octan-8-yl)pyridin-2-yl)oxy)cyclobutoxy)piperidin-1-yl)prop-1-yn-1-yl)isoxazol-5-yl)-3-methylbutanoyl)-4-hydroxy-N-((S)-1-(4-(4-methylthiazol-5-yl)phenyl)ethyl)pyrrolidine-2-carboxamide]		> 75%	DC50 (target protein degradation, read-out: BRM DC50): < 2.5 nM
Cc1ncsc1-c1ccc([C@H](C)NC(=O)[C@@H]2C[C@@H](O)CN2C(=O)[C@@H](c2cc(N3CCC(CN4CCC(O[C@H]5C[C@H](C#Cc6cc(N7C8CCC7CN(c7cc(-c9ccccc9O)nnc7N)C8)ccn6)C5)CC4)CC3)no2)C(C)C)cc1 [compound 699, (2S,4R)-1-((2R)-2-(3-(4-((4-((1r,3r)-3-((4-(3-(3-amino-6-(2-hydroxyphenyl)pyridazin-4-yl)-3,8-diazabicyclo[3.2.1]octan-8-yl)pyridin-2-yl)ethynyl)cyclobutoxy)piperidin-1-yl)methyl)piperidin-1-yl)isoxazol-5-yl)-3-methylbutanoyl)-4-hydroxy-N-((S)-1-(4-(4-methylthiazol-5-yl)phenyl)ethyl)pyrrolidine-2-carboxamide]	< 2.5 nM		Dmax [2]: > 75%
Cc1ncsc1-c1ccc([C@H](C)NC(=O)[C@@H]2C[C@@H](O)CN2C(=O)[C@@H](NC(=O)COCCOCCOCCOCCOCCOCCOCCOc2cc(N3C4CCC3CN(c3cc(-c5ccccc5O)nnc3N)C4)ccn2)C(C)(C)C)cc1 [compound 35, (2S,4R)-1-[(2S)-2-[1-(4-[3-[3-amino-6-(2-hydroxyphenyl)pyridazin-4-yl]-3,8-diazabicyclo[3.2.1]octan-8-yl]pyridin-2-yl)-1,4,7,10,13,16,19,22-octaoxatetracosan-24-amido]-3,3-dimethylbutanoyl]-4-hydroxy-N-[(1S)-1-[4-(4-methyl-1,3-thiazol-5-yl)phenyl]ethyl]pyrrolidine-2-carboxamide]	2.5 to 10 nM		Dmax [4]: > 75%
Cc1ncsc1-c1ccc([C@H](C)NC(=O)[C@@H]2C[C@@H](O)CN2C(=O)[C@@H](c2cc(OCCN3CCC(O[C@H]4C[C@H](Oc5cc(N6C7CCC6CN(c6cc(-c8ccccc8OP(=O)(O)O)nnc6N)C7)ccn5)C4)CC3)no2)C(C)C)cc1 [compound 506, 2-(6-amino-5-(8-(2-((1R,3r)-3-((1-(2-((5-((R)-1-((2S,4R)-4-hydroxy-2-(((S)-1-(4-(4-methylthiazol-5-yl)phenyl)ethyl)carbamoyl)pyrrolidin-1-yl)-3-methyl-1-oxobutan-2-yl)isoxazol-3-yl)oxy)ethyl)piperidin-4-yl)oxy)cyclobutoxy)pyridin-4-yl)-3,8-diazabicyclo[3.2.1]octan-3-yl)pyridazin-3-yl)phenyl dihydrogen phosphate]		> 75%	DC50 [5]: < 2.5 nM
Cc1ncsc1-c1ccc([C@H](CN)NC(=O)[C@@H]2C[C@@H](O)CN2C(=O)[C@@H](c2cc(OCCN3CCN(CCOc4cc(N5C6CCC5CN(c5cc(-c7ccccc7O)nnc5N)C6)ccn4)CC3)no2)C(C)C)cc1 [compound 103, (2S,4R)-N-((R)-2-amino-1-(4-(4-methylthiazol-5-yl)phenyl)ethyl)-1-((2R)-2-(3-(2-(4-(2-((4-(3-(3-amino-6-(2-hydroxyphenyl)pyridazin-4-yl)-3,8-diazabicyclo[3.2.1]octan-8-yl)pyridin-2-yl)oxy)ethyl)piperazin-1-yl)ethoxy)isoxazol-5-yl)-3-methylbutanoyl)-4-hydroxypyrrolidine-2-carboxamide]	2.5 to 10 nM		Dmax [4]: > 75%
Cc1ncsc1-c1ccc([C@H](C)NC(=O)[C@@H]2C[C@@H](O)CN2C(=O)[C@@H](c2cc(OCCN3CCN(CCOc4cc(N5C6CCC5CN(c5cc(-c7ccccc7O)nnc5N)C6)ccn4)C[C@@H]3C)no2)C(C)C)cn1 [compound 509, (2S,4R)-1-((2R)-2-(3-(2-((2S)-4-(2-((4-(3-(3-amino-6-(2-hydroxyphenyl)pyridazin-4-yl)-3,8-diazabicyclo[3.2.1]octan-8-yl)pyridin-2-yl)oxy)ethyl)-2-methylpiperazin-1-yl)ethoxy)isoxazol-5-yl)-3-methylbutanoyl)-4-hydroxy-N-((S)-1-(6-(4-methylthiazol-5-yl)pyridin-3-yl)ethyl)pyrrolidine-2-carboxamide]		> 75%	DC50 [5]: < 2.5 nM
Cc1ncsc1-c1ccc([C@H](C)NC(=O)[C@@H]2C[C@@H](O)CN2C(=O)[C@H](c2cc(CCCN3CCC(O[C@H]4C[C@H](Oc5cc(N6C7CCC6CN(c6cc(-c8ccccc8O)nnc6N)C7)ccn5)C4)CC3)no2)C(C)C)cc1 [compound 190, (2S,4R)-1-((2S)-2-(3-(3-(4-((1r,3S)-3-((4-(3-(3-amino-6-(2-hydroxyphenyl)pyridazin-4-yl)-3,8-diazabicyclo[3.2.1]octan-8-yl)pyridin-2-yl)oxy)cyclobutoxy)piperidin-1-yl)propyl)isoxazol-5-yl)-3-methylbutanoyl)-4-hydroxy-N-((S)-1-(4-(4-methylthiazol-5-yl)phenyl)ethyl)pyrrolidine-2-carboxamide]	> 30 nM		
